In article PMC13144739, “Global analysis of cancer cell responses to USP9X inhibition” (The EMBO Journal, 2026):
“Also recorded” adds a separate entry of the source.

Legend:
USP9X/USP24 chimera = target: T1, USP9X/USP24 chimera (Homo sapiens, UniProt Q93008, A1766S/D1761E/K1759R/L1762V/Y1757F); assay: Ub-Rho cleavage assay, USP9X/USP24 chimera; type: biochemical
T1 construct: His/SUMO (pOPIN-S vector) (N, cleaved yes); made in house; host or cells: E. coli BL21
Description: An expression construct for the USP9X catalytic domain (aa 1551–1970, […]: Q93008-1), was codon optimised for bacterial expression, synthesised in gBlock format (Integrated DNA Technologies) and cloned into the pOPIN-S vector (Berrow et al, [2007]), which was digested with KpnI and HindIII using In-Fusion™ HD cloning (Takara Clontech). […] For the USP9X Δβ catalytic domain a deletion construct ΔE1924-K1943 and for USP9X/USP24 chimera, a construct with USP9X Y1757-A1766 replaced with the USP24 (NCBI Reference Sequence: NP_056121) aa motif […] was used. All constructs were confirmed by Sanger sequencing (AGRF).
The reaction was stopped through the addition of 10 mM citric acid. The assay was performed in 384-well format with a total reaction volume of 16 µL. Data was collected using the ClarioSTAR plate reader (BMG Labtech) at an emission of 535 nm. […] IC50 values presented in our study are the mean of three independent biological repeats unless indicated otherwise.

[1] = system: T2, USP9X Δβ catalytic domain; assay: Ub-PA suicide probe assay, USP9X Δβ; type: biochemical, human; conditions: 50 µM compound
T2 construct: His/SUMO (pOPIN-S vector) (N, cleaved yes); made in house; host or cells: E. coli BL21
Description: An expression construct for the USP9X catalytic domain (aa 1551–1970, […]: Q93008-1), was codon optimised for bacterial expression, synthesised in gBlock format (Integrated DNA Technologies) and cloned into the pOPIN-S vector (Berrow et al, [2007]), which was digested with KpnI and HindIII using In-Fusion™ HD cloning (Takara Clontech). For SPR, constructs were ordered with a GGS linker followed by a C-terminal AviTag™ (aa sequence: […]) and were cloned as above. For the USP9X Δβ catalytic domain a deletion construct ΔE1924-K1943 and for USP9X/USP24 chimera, a construct with USP9X Y1757-A1766 replaced with the USP24 (NCBI Reference Sequence: NP_056121) aa motif […] was used. All constructs were confirmed by Sanger sequencing (AGRF).
For inhibitor activity assays, USP9X catalytic domain (di-ubiquitin cleavage assay: 750 nM, ubiquitin-probe assays: 2.5 µM) was pre-incubated with USP9X inhibitors for 30 min at ambient temperature and subsequently mixed with di-ubiquitin (final concentration 2 µM) in assay buffer (25 mM Tris [pH 8.0], 150 mM NaCl, 10 mM DTT) at pH 8.0 or was mixed with ubiquitin-propargylamide (Ub-PA)/ubiquitin-vinyl sulfonate (Ub-VS) probes at a final concentration of 10 µM in assay buffer. […]

MOLT-4 cells = assay: NCI-60 cancer cell panel, MOLT-4; type: cell-based, human; conditions: 10 µM, 3 days
Description: (§1) Inhibitors were tested at 10 µM. Data shown is the mean of two technical replicates and is shown relative to the no-drug control, and relative to the time zero number of cells.

lymphoma line SR = assay: NCI-60 cancer cell panel, SR; type: cell-based, human; conditions: 10 µM, 3 days
Description: as §1

MiaPaca2 cells [2] = assay: Colony formation assay, MiaPaca2; type: cell-based, human; conditions: 10 µM, 7–12 days
Description: (§2) Cells were seeded at low density (200–4000 cells per well) after initial optimisation in a six-well tissue culture-treated plate (Falcon). Twenty-four hours post seeding, media was replaced, and the inhibitor was added. Cells were left to grow into colonies between 7 and 12 days, depending on the cell line. For analysis, the media was removed, and the cells were fixed with 10% (w/v) formalin for 10 min. Colonies were stained with crystal violet (Sigma-Aldrich, 0.5% [w/v] in 20% [v/v] MeOH) for 10 min and washed thrice with distilled H2O. Plates were imaged using the ChemiDoc imaging system (Bio-Rad) and analysed using the ImageJ ColonyArea plugin as described previously (Guzmán et al, [2014]).

ACHN cells = assay: Colony formation assay, ACHN; type: cell-based, human; conditions: 10 µM, 7–12 days
Description: as §2

MiaPaca2 cells [3] = assay: Lattice light sheet imaging of mitosis, MiaPaca2; type: cell-based, human; conditions: 15 µM
Description: MDA-MB-231, MiaPaca2, HMEC-1, SK-MEL-2 and UO-31 cells were seeded at 2–15 × 10^4 cells/mL in 8-well glass µ-slides (ibidi). […] SPY650-Tubulin, SPY555-DNA (both Spirochrome, Inc.), and Annexin V FITC (Sigma-Aldrich) were added at a final concentration of 1 in 1000. Cells were left to grow for 24 h before time-lapse live-cell data were acquired using a Lattice Light Sheet 7 (Zeiss). […] Aberration correction was set to a value of 170 to minimise aberrations as determined by imaging the Point Spread Function using 100 nm fluorescent microspheres. Data were collected with a frame time of 10 ms and a z step of 0.4 μm with 834 frames per 290 μm by 290 μm. Individual regions were imaged in parallel across six wells of the eight-well chamber slide. Data are presented as Maximum Intensity Projections (MIPs), and these MIPs were used for all downstream analysis. Tile regions were imaged for 24 h with 10 min intervals at 37 °C, 5% CO2. Analysis was performed using the MIPs of the different full fields of cells over the 24–48 h time period. Mitosis and mitosis arrest were classified through a combination of automated image analysis and manual validation. […] Small erroneous detected spots were further removed through a manually adjusted size filter. […] The mean intensity of all tracks was then measured to determine mitosis and mitosis arrest. […]

T1 sequence (Q93008 1551-1970 Y1757F/K1759R/D1761E/L1762V/A1766S): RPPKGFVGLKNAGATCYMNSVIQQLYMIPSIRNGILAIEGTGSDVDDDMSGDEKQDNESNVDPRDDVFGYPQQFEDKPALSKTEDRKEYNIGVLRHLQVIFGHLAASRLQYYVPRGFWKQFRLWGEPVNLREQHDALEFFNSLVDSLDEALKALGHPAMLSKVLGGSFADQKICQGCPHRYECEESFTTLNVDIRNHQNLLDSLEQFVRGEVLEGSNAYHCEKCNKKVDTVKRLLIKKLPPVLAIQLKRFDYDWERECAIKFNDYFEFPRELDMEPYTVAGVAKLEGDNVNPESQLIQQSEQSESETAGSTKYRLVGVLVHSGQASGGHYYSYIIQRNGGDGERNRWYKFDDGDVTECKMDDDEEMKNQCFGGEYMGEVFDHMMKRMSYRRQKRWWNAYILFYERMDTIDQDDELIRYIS

SMILES: Cc1[nH]c2ccc(C(=O)N3CCN(S(=O)(=O)c4ccc5c(c4)OCCO5)CC3)cc2c1C [WEHI-092]
- activity of USP9X/USP24 chimera in presence of compound (USP9X/USP24 chimera): remained fully active at concentrations up to 10 µM; also recorded: no longer inhibited
- modification of USP9X Δβ with Ub-PA probe [1]: unable to be modified by the probe
- cell growth, MOLT-4 (MOLT-4 cells): stalling cell growth completely
- cell killing, SR (lymphoma line SR): cell death
- clonogenic potential, MiaPaca2 (MiaPaca2 cells [2]): strong decrease in proliferative capacity
- clonogenic potential, ACHN (ACHN cells): apparent increase in cell proliferation
- apoptosis on metaphase arrest (Annexin V uptake), MiaPaca2 (MiaPaca2 cells [3]): did not trigger apoptosis
- cell division phenotype, MiaPaca2 (MiaPaca2 cells [3]; imaged 24-48 h): significant defects in cell division
